From patent US8143243B2, “Compounds for the treatment of hepatitis C” (Bristol-Myers Squibb Company, priority 2007, dated 2012)
Where two headings read alike, the source gives them in different places.

Legend:
[1] = system: HCV replicon cells; assay: HCV replicon FRET / luciferase assay; assay type: cell-based; settings: Hepatitis C virus
Source text: FRET Assay Preparation. To perform the HCV FRET screening assay, 96-well cell culture plates were used. The FRET peptide (Anaspec, Inc.) (Taliani et al., Anal. Biochem. 1996, 240, 60-67) contains a fluorescence donor, EDANS, near one end of the peptide and an acceptor, DABCYL, near the other end. The fluorescence of the peptide is quenched by […] resonance energy transfer (RET) between the donor and the acceptor, but as the NS3 protease cleaves the peptide the products are released from RET quenching and the fluorescence of the donor becomes apparent. The assay reagent was made as follows: 5× cell Luciferase cell culture lysis reagent from Promega (#E153A) diluted to 1× with dH2O, NaCl added to 150 mM final, the FRET peptide diluted to 20 μM final from a 2 mM stock.
To prepare plates, HCV replicon cells, with or without a Renilla luciferase reporter gene, were trypsinized and placed into each well of a 96-well plate with titrated test compounds added in columns 3 through 12; columns 1 and 2 contained a control compound (HCV protease inhibitor), and the bottom row contained cells without compound. The plates were then placed in a CO2 incubator at 37° C.
Assays. Subsequent to addition of the test compounds described above (FRET Assay Preparation), at various times the plate was removed and Alamar blue solution (Trek Diagnostics, #00-100) was added per well as a measure of cellular toxicity. After reading in a Cytoflour 4000 instrument (PE Biosystems), plates were rinsed with PBS and then used for FRET assay by the addition of 30 ul of the FRET peptide assay reagent described above (FRET Assay Preparation) per well. The plate was then placed into the Cytoflour 4000 instrument which had been set to 340 excite/490 emission, automatic mode for 20 cycles and the plate read in a kinetic mode. Typically, the signal to noise using an endpoint analysis after the reads was at least three-fold. Alternatively, after Alamar blue reading, plates were rinsed with PBS, 50 ul of DMEM (high glucose) without phenol red was added and plates were then used for luciferase assay using the Promega Dual-Glo Luciferase Assay System.
Compound analysis was determined by quantification of the relative HCV replicon inhibition and the relative cytotoxicity values. To calculate cytoxicity values, the average Alamar Blue fluorescence signals from the control wells were set as 100% non-toxic. The individual signals in each of the compound test wells were then divided by the average control signal and multiplied by 100% to determine […]. To calculate the HCV replicon inhibition values, an average background value was obtained from the two wells containing the highest amount of HCV protease inhibitor at the end of the assay period. These numbers were similar to those obtained from naïve Huh-7 cells.
The background numbers were then subtracted from the average signal obtained from the control wells and this number was used as 100% activity. The individual signals in each of the compound test wells were then divided by the averaged control values after background subtraction and multiplied by 100% to determine percent activity. EC50 values for a protease inhibitor titration were calculated as the concentration which caused a 50% reduction in FRET or luciferase activity. The two numbers generated for the compound plate, percent cytoxicity and percent activity were used to determine compounds of interest for further analysis.

[2] = target: T1, HCV NS5B (Hepatitis C virus genotype 1b, UniProt Q9WMX2); assay: HCV NS5B RdRp enzyme assay (standard / modified); assay type: biochemical
T1 construct: The protein was expressed with an 18 amino acid C-terminal truncation to enhance the solubility; made in house; host or cells: E. coli BL21 (DE3)
Procedure, shortened: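 SPA detection of 3H-UTP (0.29 μM) incorporation by C-terminally truncated (18 aa) genotype 1b NS5B from E. coli, on polyA/biotin-oligo-dT12 at 30° C, pH 7.5 Hepes, 2% DMSO. Modified format: 14 nM enzyme, 0.2 nM template, 20 nM primer prebound to beads, 4 h; standard: 28 nM, 6 nM, 180 nM free primer, 60 min. Seven-point IC50 fit.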

[3] = HCV replicon cells, FRET or luciferase readout, read-out: EC50
[4] = HCV RdRp genotype 1b enzyme, read-out: IC50

T1 sequence (Q9WMX2 2420-2992): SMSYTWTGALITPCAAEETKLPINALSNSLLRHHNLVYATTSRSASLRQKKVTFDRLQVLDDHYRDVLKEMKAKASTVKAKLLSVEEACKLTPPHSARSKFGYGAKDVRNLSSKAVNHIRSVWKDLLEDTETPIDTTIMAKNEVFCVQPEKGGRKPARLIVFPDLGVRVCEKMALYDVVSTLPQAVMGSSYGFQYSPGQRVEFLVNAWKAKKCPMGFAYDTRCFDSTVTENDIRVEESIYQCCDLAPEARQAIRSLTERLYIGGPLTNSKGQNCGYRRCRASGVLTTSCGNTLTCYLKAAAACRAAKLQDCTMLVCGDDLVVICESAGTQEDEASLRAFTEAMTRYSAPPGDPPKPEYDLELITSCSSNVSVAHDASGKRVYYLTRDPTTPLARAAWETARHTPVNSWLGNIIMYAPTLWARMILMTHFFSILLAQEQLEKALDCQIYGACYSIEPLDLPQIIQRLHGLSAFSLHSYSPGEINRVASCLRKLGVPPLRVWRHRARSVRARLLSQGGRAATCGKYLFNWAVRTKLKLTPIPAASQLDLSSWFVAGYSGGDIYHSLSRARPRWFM

SMILES | EC50 [1, 3] | IC50 [2, 4] | EC50 [1] | IC50 [2]
COc1ccc2c(c1)C=C(c1c(C(=O)N3C[C@@H](C)O[C@@H](C)C3)cnn1C)Cn1c-2c(C2CCCCC2)c2ccc(C(=O)NS(=O)(=O)N3CCOCC3)cc21 | 0.001 to 0.5 µM | 0.001 to 0.5 µM |  | 
COc1ccc2c(c1)C=C(c1c(C(=O)N3C4COCC3COC4)cnn1C)Cn1c-2c(C2CCCCC2)c2ccc(C(=O)NS(=O)(=O)C3CCC3)cc21 |  |  | 0.001 to 0.5 µM | 0.001 to 0.5 µM
COc1ccc2c(c1)C=C(c1c(C(=O)N3C4CCC3CN(C)C4)cnn1C)Cn1c-2c(C2CCCCC2)c2ccc(C(=O)NS(=O)(=O)C3CCC3)cc21 |  |  | 0.001 to 0.5 µM | 0.001 to 0.5 µM
COc1ccc2c(c1)C=C(c1c(C(=O)N3CCOCC3)cnn1C(C)C)Cn1c-2c(C2CCCCC2)c2ccc(C(=O)NS(=O)(=O)C(C)C)cc21 | 0.001 to 0.5 µM | 0.001 to 0.5 µM |  | 
COc1ccc2c(c1)C=C(c1c(C(=O)N3[C@@H]4CC[C@H]3C[C@@](C)(O)C4)cnn1C)Cn1c-2c(C2CCCCC2)c2ccc(C(=O)NS(=O)(=O)C(C)C)cc21 |  |  | 0.001 to 0.5 µM | 0.001 to 0.5 µM
COc1ccc2c(c1)C=C(c1ocnc1C(=O)N1CCOCC1)Cn1c-2c(C2CCCCC2)c2ccc(C(=O)NS(=O)(=O)N(C)C)cc21 | 0.001 to 0.5 µM | 0.001 to 0.5 µM |  | 
COc1ccc2c(c1)C=C(c1c(C(=O)N3[C@@H]4CC[C@H]3CN(C)C4)cnn1C(C)C)Cn1c-2c(C2CCCCC2)c2ccc(C(=O)NS(=O)(=O)CC(C)C)cc21 |  |  | 0.001 to 0.5 µM | 0.001 to 0.5 µM
COc1ccc2c(c1)C=C(c1c(C(=O)N3CCOC(CN(C)C)C3)cnn1C)Cn1c-2c(C2CCCCC2)c2ccc(C(=O)NS(=O)(=O)N3CCOCC3)cc21 (centres unmarked) | 0.001 to 0.5 µM | 0.001 to 0.5 µM |  | 
CCN1C[C@@H]2C[C@H]1CN2C(=O)c1c(C(F)(F)F)nn(C)c1C1=Cc2cc(OC)ccc2-c2c(C3CCCCC3)c3ccc(C(=O)NS(=O)(=O)C(C)C)cc3n2C1 | 0.001 to 0.5 µM | 0.001 to 0.5 µM |  | 
COc1ccc2c(c1)C=C(c1c(C(=O)N3C4CCC3CC4)cnn1C)Cn1c-2c(C2CCCCC2)c2ccc(C(=O)NS(=O)(=O)N3CCOCC3)cc21 |  |  | 0.001 to 0.5 µM | 0.001 to 0.5 µM
COc1ccc2c(c1)C=C(c1c(C(=O)N3[C@@H]4CC[C@H]3C[C@@](C)(O)C4)cnn1C)Cn1c-2c(C2CCCCC2)c2ccc(C(=O)NS(=O)(=O)N3CCOCC3)cc21 |  |  | 0.001 to 0.5 µM | 0.001 to 0.5 µM
COc1ccc2c(c1)C=C(c1c(C(=O)N3CCN(C)CC3)c(C(F)(F)F)nn1C)Cn1c-2c(C2CCCCC2)c2ccc(C(=O)NS(=O)(=O)C(C)C)cc21 | 0.001 to 0.5 µM | 0.001 to 0.5 µM |  | 
CCn1nc(C)c(C2=Cc3cc(OC)ccc3-c3c(C4CCCCC4)c4ccc(C(=O)NS(=O)(=O)C(C)C)cc4n3C2)c1C(=O)N1C[C@@H](C)O[C@@H](C)C1 | 0.001 to 0.5 µM | 0.001 to 0.5 µM |  | 
COc1ccc2c(c1)C=C(c1c(C(=O)N3CC4CCC(C3)N4C)cnn1C(C)C)Cn1c-2c(C2CCCCC2)c2ccc(C(=O)NS(=O)(=O)C(C)C)cc21 |  |  | 0.001 to 0.5 µM | 0.001 to 0.5 µM
COc1ccc2c(c1)C=C(c1c(C(=O)N3C[C@@H](C)N(C)[C@@H](C)C3)c(C)nn1C(C)C)Cn1c-2c(C2CCCCC2)c2ccc(C(=O)NS(=O)(=O)C(C)C)cc21 | 0.001 to 0.5 µM | 0.001 to 0.5 µM |  | 
CCn1nc(C)c(C(=O)N2C[C@@H](C)O[C@@H](C)C2)c1C1=Cc2cc(OC)ccc2-c2c(C3CCCCC3)c3ccc(C(=O)NS(=O)(=O)C(C)C)cc3n2C1 [drawing 580] | 0.001 to 0.5 µM | 0.001 to 0.5 µM |  | 
COc1ccc2c(c1)C=C(c1c(C(=O)N(C)C)cnn1C)Cn1c-2c(C2CCCCC2)c2ccc(C(=O)NS(=O)(=O)C(C)C)cc21 | 0.001 to 0.5 µM | 0.001 to 0.5 µM |  | 
COc1ccc2c(c1)C=C(c1c(C(=O)N3C[C@@H](C)O[C@@H](C)C3)cnn1CC(C)C)Cn1c-2c(C2CCCCC2)c2ccc(C(=O)NS(=O)(=O)C(C)C)cc21 | 0.001 to 0.5 µM | 0.001 to 0.5 µM |  | 
COc1ccc2c(c1)C=C(c1c(C(=O)N3CCCN(C)CC3)cnn1C)Cn1c-2c(C2CCCCC2)c2ccc(C(=O)NS(=O)(=O)N3CCOCC3)cc21 | 0.001 to 0.5 µM | < 0.02 µM |  | 
